Laboratory results taken from patent publication US20110201818A1, “POLO-LIKE KINASE INHIBITORS” (TAKEDA PHARMACEUTICAL COMPANY LIMITED, priority 2007, published 2011).

Biological target: T1, human PLK1 (Homo sapiens, UniProt P53350)
T1 construct: FLAG (DYKDDDDK) (N); made in house; host or cells: Sf21 insect cells, recombinant baculovirus (pFASTBAC1, Bac-to-Bac)
Assay: PLK1 in vitro enzymatic activity assay (phosphorylation of alpha casein by recombinant PLK1)
Format: biochemical
Conditions: recombinant FLAG-tagged PLK1, alpha casein substrate, 500 nmol/L ATP, 40 min at room temperature; read-out: pIC50 (PLK1) (converted)
Experimental: PCR was performed using the vector as a template. […] After XbaI and XhoI digestion of the PCR product, the fragment was subcloned into pFASTBAC1 (Invitrogen, USA). Recombinant baculoviruses were prepared according to the procedure of the Bac-to-Bac baculovirus expression system (Invitrogen, USA). Sf21 cells were purchased from Invitrogen and grown in Sf-900 II SFM medium containing 10% fetal bovine serum, 50 μg/mL gentamicin and 0.1% pluronic F-68 (Invitrogen, USA) at 28° C. For preparation of PLK1 enzyme, Sf21 cells were infected with recombinant baculoviruses and cultured at 28° C. for 72 h.
The inhibition of PLK1 by the compounds was determined with the following assay that measures the phosphorylation of alpha casein by recombinant PLK1. Kinase reactions were performed at room temperature for 40 min in the kinase reaction buffer (25 mmol/L HEPES, pH 7.5, 10 mmol/L magnesium acetate, 1 mmol/L dithiothreitol) containing 50 ng PLK1 enzyme, 0.1 μCi [γ-^32P]ATP, 500 nmol/L ATP and 3 μg alpha casein (MP Biomedicals Inc., USA) in a final volume of 50 μL. The incubation was terminated by the addition of 10% trichloroacetic acid (Wako, Japan). Phosphorylated proteins were filtrated in GF/C filter plates (Packard, USA) with a Cell harvester (Packard, USA) and washed out free [γ-^32P]-ATP with 250 mmol/L phosphoric acid. Then, the plates were air dried for 60 min at 45° C., followed by the addition of 20 μL of MicroScint-O (Packard, USA). The radioactivity was counted by a Top-count scintillation counter (Packard, USA).

T1 sequence (P53350 with tags, fused parts or gaps): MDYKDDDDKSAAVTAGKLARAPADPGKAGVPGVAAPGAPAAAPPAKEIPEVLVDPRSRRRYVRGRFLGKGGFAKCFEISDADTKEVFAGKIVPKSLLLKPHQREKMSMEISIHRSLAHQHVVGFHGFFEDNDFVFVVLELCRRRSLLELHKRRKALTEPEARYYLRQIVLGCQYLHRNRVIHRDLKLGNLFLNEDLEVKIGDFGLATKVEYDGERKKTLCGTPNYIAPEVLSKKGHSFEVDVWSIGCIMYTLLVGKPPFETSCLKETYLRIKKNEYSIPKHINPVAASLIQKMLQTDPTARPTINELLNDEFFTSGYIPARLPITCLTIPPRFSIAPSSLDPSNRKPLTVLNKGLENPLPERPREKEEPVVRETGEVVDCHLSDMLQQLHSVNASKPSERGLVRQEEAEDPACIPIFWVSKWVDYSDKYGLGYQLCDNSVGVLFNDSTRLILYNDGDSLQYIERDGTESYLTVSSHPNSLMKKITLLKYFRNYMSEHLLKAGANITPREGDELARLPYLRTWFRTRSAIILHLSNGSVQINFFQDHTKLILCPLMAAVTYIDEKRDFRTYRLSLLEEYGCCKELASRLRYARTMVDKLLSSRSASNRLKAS

| SMILES | IC50 [nM] |
| --- | --- |
| CCN1CC(NC(=O)c2cc(OC)c(Nc3ncc4c(n3)N(C3CCCC3)CC(F)(F)C(=O)N4C)cc2F)C1 [Compound 131, 4-(9-cyclopentyl-7,7-difluoro-5-methyl-6-oxo-6,7,8,9-tetrahydro-5H-pyrimido[4,5-b][1,4]diazepin-2-ylamino)-N-(1-ethylazetidin-3-yl)-2-fluoro-5-methoxybenzamide] | ≤ 2 |
| CN1C(=O)C(F)(F)CN(C2CCCC2)c2nc(Nc3ccc4[nH]cc(C5=CCNCC5)c4c3)ncc21 [Compound 21, 9-Cyclopentyl-7,7-difluoro-5-methyl-2-(3-(1,2,3,6-tetrahydropyridin-4-yl)-1H-indol-5-ylamino)-8,9-dihydro-5H-pyrimido[4,5-b][1,4]diazepin-6(7H)-one] | > 2 |
| COc1cc(C(=O)NN2CCCC2)ccc1Nc1ncc2c(n1)N(C1CCCCC1)CC(F)(F)C(=O)N2C [Compound 67, 4-(9-cyclohexyl-7,7-difluoro-5-methyl-6-oxo-6,7,8,9-tetrahydro-5H-pyrimido[4,5-b][1,4]diazepin-2-ylamino)-3-methoxy-N-(pyrrolidin-1-yl)benzamide] | ≤ 2 |
| CCN1CCC(NC(=O)c2ccc(Nc3ncc4c(n3)N(C3CCCC3)CC(F)(F)C(=O)N4C)c(OC)c2)CC1 [Compound 7, 4-(9-cyclopentyl-7,7-difluoro-5-methyl-6-oxo-6,7,8,9-tetrahydro-5H-pyrimido[4,5-b][1,4]diazepin-2-ylamino)-N-(1-ethylpiperidin-4-yl)-3-methoxybenzamide] | > 2 |
| CCC1(F)CN(C2CCCC2)c2nc(Nc3ccc(C(=O)NC4CN(C)C4)cc3OC)ncc2N(C)C1=O (centres unmarked) [Compound 95, 4-(9-Cyclopentyl-7-ethyl-7-fluoro-5-methyl-6-oxo-6,7,8,9-tetrahydro-5H-pyrimido[4,5-b][1,4]diazepin-2-ylamino)-3-methoxy-N-(1-methylazetidin-3-yl)benzamide] | ≤ 2 |
| COc1cc(C(=O)N[C@@H]2CCCC[C@H]2O)ccc1Nc1ncc2c(n1)N(C1CCCCC1)CC(F)(F)C(=O)N2C (racemic) [Compound 48, 4-(9-cyclohexyl-7,7-difluoro-5-methyl-6-oxo-6,7,8,9-tetrahydro-5H-pyrimido[4,5-b][1,4]diazepin-2-ylamino)-N-((trans)-2-hydroxycyclohexyl)-3-methoxybenzamide] | ≤ 2 |
| COc1cc(C(=O)NC2CCNCC2)ccc1Nc1ncc2c(n1)N(C1CCCC1)CC(F)(F)C(=O)N2C [Compound 10, 4-(9-cyclopentyl-7,7-difluoro-5-methyl-6-oxo-6,7,8,9-tetrahydro-5H-pyrimido[4,5-b][1,4]diazepin-2-ylamino)-3-methoxy-N-(piperidin-4-yl)benzamide] | ≤ 2 |
| COc1cc(C(=O)N2CCN(C)CC2)ccc1Nc1ncc2c(n1)N(C1CCCCC1)CC(F)(F)C(=O)N2C [Compound 57, 9-cyclohexyl-7,7-difluoro-2-(2-methoxy-4-(4-methylpiperazine-1-carbonyl)-phenylamino)-5-methyl-8,9-dihydro-5H-pyrimido[4,5-b][1,4]diazepin-6(7H)-one] | > 2 |
| C=CC1(F)CN(C2CCCC2)c2nc(Nc3ccc(C(=O)NC4CN(C)C4)cc3OC)ncc2N(C)C1=O (centres unmarked) [Compound 100, 4-(9-cyclopentyl-7-fluoro-5-methyl-6-oxo-7-vinyl-6,7,8,9-tetrahydro-5H-pyrimido[4,5-b][1,4]diazepin-2-ylamino)-3-methoxy-N-(1-methylazetidin-3-yl)benzamide] | ≤ 2 |
| COc1cc(C(=O)NC2CN(C(C)C)C2)ccc1Nc1ncc2c(n1)N(C1CCCC1)CC(F)(F)C(=O)N2C [Compound 129, 4-(9-cyclopentyl-7,7-difluoro-5-methyl-6-oxo-6,7,8,9-tetrahydro-5H-pyrimido[4,5-b][1,4]diazepin-2-ylamino)-N-(1-isopropylazetidin-3-yl)-3-methoxybenzamide] | ≤ 2 |
| COc1cc(C(=O)NC2CCN(CCO)CC2)ccc1Nc1ncc2c(n1)N(C1CCCCC1)CC(F)(F)C(=O)N2C [Compound 44, 4-(9-cyclohexyl-7,7-difluoro-5-methyl-6-oxo-6,7,8,9-tetrahydro-5H-pyrimido[4,5-b][1,4]diazepin-2-ylamino)-N-(1-(2-hydroxyethyl)piperidin-4-yl)-3-methoxybenzamide] | ≤ 2 |
| COc1cc(C(=O)NC2CC2)ccc1Nc1ncc2c(n1)N(C1CCCC1)CC(F)(F)C(=O)N2C [Compound 2, 4-(9-cyclopentyl-7,7-difluoro-5-methyl-6-oxo-6,7,8,9-tetrahydro-5H-pyrimido[4,5-b][1,4]diazepin-2-ylamino)-N-cyclopropyl-3-methoxybenzamide] | > 2 |
| COc1cc(C(=O)O)c(F)cc1Nc1ncc2c(n1)N(C1CCCC1)CC(F)(F)C(=O)N2C [Compound 31, 4-(9-Cyclopentyl-7,7-difluoro-5-methyl-6-oxo-6,7,8,9-tetrahydro-5H-pyrimido[4,5-b][1,4]diazepin-2-ylamino)-2-fluoro-5-methoxybenzoic acid] | ≤ 2 |
| C=C[C@@]1(F)CN(C2CCCC2)c2nc(Nc3ccc(C(=O)NC4CCN(CC)CC4)cc3OC)ncc2N(C)C1=O [Compound 105, (R)-4-(9-cyclopentyl-7-fluoro-5-methyl-6-oxo-7-vinyl-6,7,8,9-tetrahydro-5H-pyrimido[4,5-b][1,4]diazepin-2-ylamino)-N-(1-ethylpiperidin-4-yl)-3-methoxybenzamide] | ≤ 2 |

More lines, now with the values ahead:

| IC50 [nM] | SMILES |
| --- | --- |
| > 2 | CN1CCC(NC(=O)c2ccc(Nc3ncc4c(n3)N(C3CCCC3)CC(F)(F)C(=O)N4C)c(C(F)(F)F)c2)CC1 [Compound 30, 4-(9-cyclopentyl-7,7-difluoro-5-methyl-6-oxo-6,7,8,9-tetrahydro-5H-pyrimido[4,5-b][1,4]diazepin-2-ylamino)-N-(1-methylpiperidin-4-yl)-3-(trifluoromethyl)benzamide] |
| ≤ 2 | CN1CCC(NC(=O)c2ccc(Nc3ncc4c(n3)N(C3CCCC3)CC(F)(F)C(=O)N4C)c(F)c2)CC1 [Compound 22, 4-(9-Cyclopentyl-7,7-difluoro-5-methyl-6-oxo-6,7,8,9-tetrahydro-5H-pyrimido[4,5-b][1,4]diazepin-2-ylamino)-3-fluoro-N-(1-methylpiperidin-4-yl)benzamide] |
| ≤ 2 | COc1cc(C(N)=O)ccc1Nc1ncc2c(n1)N(C1CCCCC1)CC(F)(F)C(=O)N2C [Compound 58, 4-(9-cyclohexyl-7,7-difluoro-5-methyl-6-oxo-6,7,8,9-tetrahydro-5H-pyrimido[4,5-b][1,4]diazepin-2-ylamino)-3-methoxybenzamide] |
| > 2 | CCC1(F)CN(C2CCCCC2)c2nc(Nc3ccc(C(=O)NC4CN(C)C4)cc3OC)ncc2N(C)C1=O (centres unmarked) [Compound 97, 4-(9-Cyclohexyl-7-ethyl-7-fluoro-5-methyl-6-oxo-6,7,8,9-tetrahydro-5H-pyrimido[4,5-b][1,4]diazepin-2-ylamino)-3-methoxy-N-(1-methylazetidin-3-yl)benzamide] |
| > 2 | CN1CCC(NC(=O)c2ccc(Nc3ncc4c(n3)N(C3CCCC3)CC(F)(F)C(=O)N4C)c(OC(F)(F)F)c2)CC1 [Compound 25, 4-(9-Cyclopentyl-7,7-difluoro-5-methyl-6-oxo-6,7,8,9-tetrahydro-5H-pyrimido[4,5-b][1,4]diazepin-2-ylamino)-N-(1-methylpiperidin-4-yl)-3-(trifluoromethoxy)-benzamide] |
| ≤ 2 | CCN1CC(NC(=O)c2ccc(Nc3ncc4c(n3)N(C3CCCC3)CC(F)(F)C(=O)N4C)c(OC)c2)C1 [Compound 128, 4-(9-cyclopentyl-7,7-difluoro-5-methyl-6-oxo-6,7,8,9-tetrahydro-5H-pyrimido[4,5-b][1,4]diazepin-2-ylamino)-N-(1-ethylazetidin-3-yl)-3-methoxybenzamide] |
| ≤ 2 | COc1cc(C(=O)N[C@H]2CCCNC2)ccc1Nc1ncc2c(n1)N(C1CCCC1)CC(F)(F)C(=O)N2C [Compound 9, (S)-4-(9-cyclopentyl-7,7-difluoro-5-methyl-6-oxo-6,7,8,9-tetrahydro-5H-pyrimido[4,5-b][1,4]diazepin-2-ylamino)-3-methoxy-N-(piperidin-3-yl)benzamide] |
| ≤ 2 | COc1cc(C(=O)NC2CN(C(C)C)C2)ccc1Nc1ncc2c(n1)N(C1CCCCC1)CC(F)(F)C(=O)N2C [Compound 125, 4-(9-cyclohexyl-7,7-difluoro-5-methyl-6-oxo-6,7,8,9-tetrahydro-5H-pyrimido[4,5-b][1,4]diazepin-2-ylamino)-N-(1-isopropylazetidin-3-yl)-3-methoxybenzamide] |
| ≤ 2 | COc1cc(C(=O)NC2CCN(CCO)CC2)ccc1Nc1ncc2c(n1)N(C1CCCC1)CC(F)(F)C(=O)N2C [Compound 5, 4-(9-cyclopentyl-7,7-difluoro-5-methyl-6-oxo-6,7,8,9-tetrahydro-5H-pyrimido[4,5-b][1,4]diazepin-2-ylamino)-N-(1-(2-hydroxyethyl)piperidin-4-yl)-3-methoxybenzamide] |
